US10906938B2, “Cell epitopes and combination of cell epitopes for use in the immunotherapy of myeloma and other cancers” (Immatics Biotechnologies GmbH, priority 2015, dated 2021)

Tested on: U266 cells
Assay: HLA class I ligand presentation upon carfilzomib treatment on U266 cells (LC-MS/MS)
Assay type: cell-based, human
Parameters: key to modulation upon carfilzomib-treatment 24 #1 / modulation upon carfilzomib-treatment 24 #2 / modulation upon carfilzomib-treatment 24 #3 / modulation upon carfilzomib-treatment 48 #1 / modulation upon carfilzomib-treatment 48 #2 / modulation upon carfilzomib-treatment 48 #3: −1: significantly down-modulated; 0: not signifcant/not detected; 1: significantly up-modulated
Conditions: U266 cells, vs mock-treated controls; for modulation upon carfilzomib-treatment 24 #1 / modulation upon carfilzomib-treatment 24 #2 / modulation upon carfilzomib-treatment 24 #3: 24 h after carfilzomib treatment (100 nM, 1 h); for modulation upon carfilzomib-treatment 24 #1 / modulation upon carfilzomib-treatment 48 #1: biological replicate #1; for modulation upon carfilzomib-treatment 24 #2 / modulation upon carfilzomib-treatment 48 #2: biological replicate #2; for modulation upon carfilzomib-treatment 24 #3 / modulation upon carfilzomib-treatment 48 #3: biological replicate #3; for modulation upon carfilzomib-treatment 48 #1 / modulation upon carfilzomib-treatment 48 #2 / modulation upon carfilzomib-treatment 48 #3: 48 h after carfilzomib treatment (100 nM, 1 h)
Experimental: HLA class I and II molecules were isolated using standard immunoaffinity purification as described using the pan-HLA class I specific mAb W6/32, the pan-HLA class II specific mAb T039 and the HLA-DR specific mAB L243 (produced in house).
HLA ligand extracts were analyzed in 5 technical replicates as described previously. In brief, peptide samples were separated by nanoflow HPLC (RSLCnano, ThermoFisher) using a 50 μm×25 cm PepMap RSLC column (Thermo Fisher) and a gradient ranging from 2.4 to 32.0% acetonitrile over the course of 90 min. Eluting peptides were analyzed in an online coupled LTQ Orbitrap XL mass spectrometer (Thermo Fisher) using a top 5 CID (collision induced dissociation) fragmentation method.
Data processing was performed as described previously. In brief, the Mascot search engine (Mascot 2.2.04; Matrix Science, London, UK) was implemented to search the human proteome as comprised in the Swiss-Prot database (20,279 reviewed protein sequences, September 2013) without enzymatic restriction. Potential mutated HLA ligands were searched implementing a database containing the human proteome concatenated with proteins containing single amino acid variants (SAVs) listed in the COSMIC database (http://cancer.sanger.ac.uk/cosmic/). Only recurrent SAVs described in 2 or more samples of hematological origin were included. Oxidized methionine was allowed as a dynamic modification. The false discovery rate was estimated using the Percolator algorithm and set to 5%. Peptide lengths were limited to 8-12 amino acids for HLA class I and 12-25 amino acids for HLA class II. Protein inference was disabled, allowing for multiple protein annotations of peptides. HLA annotation was performed using SYFPEITHI [46] or an extended in-house database. Experimental validation of peptide identifications and HLA annotations was performed by mass spectrometric and functional characterization of synthetic peptides for a subset of peptides.
The inventors quantitatively assessed HLA class I ligand presentation during proteasome inhibitor therapy. Observed was a considerable plasticity of the HLA class I ligandome after treatment with carfilzomib with 17.9±1.1% of MM.1S ligands and 11.2±0.7% of U266 ligands (mean of three biological replicates ±s.d.) showing significant modulation (fold-change ≥4, Po0.01 after Benjamini-Hochberg correction) at t24 h compared with mock-treated controls. Briefly, Cultured MCLs (MM.1S and U266) and primary myeloma samples were incubated with carfilzomib (100 nM, Kyprolis®, available, e.g., from Onyx Pharmaceuticals, Inc.) as an example for a proteasome inhibitor for a 1-h period, followed by three washes in PBS (Gibco) and recultured for additional 24 or 48 h. Controls were incubated with vehicle control (glucose 5%) for 1 h, followed by identical washing and incubation for 24 or 48 h. Experiments were conducted in three biological replicates where indicated.

Row | Sequence | modulation upon carfilzomib-treatment 24 #1 | modulation upon carfilzomib-treatment 24 #2 | modulation upon carfilzomib-treatment 24 #3 | modulation upon carfilzomib-treatment 48 #1 | modulation upon carfilzomib-treatment 48 #2 | modulation upon carfilzomib-treatment 48 #3
1 | AEQEIARLVL | 0 | 0 | 0 | 0 | 0 | 0
2 | ALWGRTTLK | 0 | 0 | 0 | 0 | 0 | 0
3 | APFQGDQRSL | 0 | 1 | 1 | 0 | 1 | 0
4 | APRHPSTNSLL | 0 | 1 | 0 | 1 | 1 | 0
5 | FLWDEGFHQL | 0 | 0 | 0 | 0 | 0 | 0
6 | GETAFAFHL | 0 | 0 | 0 | 0 | 0 | 0
7 | GEVAPSMFL | 0 | 0 | 0 | 0 | 0 | 0
8 | GEVQDLLVRL | 0 | 0 | 0 | 0 | 0 | 0
9 | GPRPITQSEL | 0 | 0 | 0 | 0 | 0 | 0
10 | IESHPDNAL | 0 | 0 | 0 | 0 | 0 | 0
11 | IIFDRPLLY | 0 | 0 | 0 | 0 | 0 | −1
12 | ILRDGITAGK | 0 | 0 | 0 | 0 | 0 | 0
13 | ILWETVPSM | 0 | 0 | 0 | 0 | 0 | 0
14 | KAMEAASSL | −1 | −1 | −1 | −1 | −1 | −1
15 | KAVNPGRSL | 0 | 0 | 0 | 0 | 0 | 0
